Experimental data published in patent US10946059B2, “Formulation containing an extract of Alpinia galanga, a process for the preparation thereof, and uses thereof” (priority 2017, dated 2021).

What was measured:
Format in all cases: in vivo, human
[1] = test system: subjects (male and female) habituated to average caffeine consumption; assay: Attention Network Test (CRSD-ANT), Example 1: mean response time, alertness, orientation, executive attention; settings: day 7 after IP, compared to placebo
Method: Only right-handed subjects were included in the study to avoid spatial bias. […] The subjects had to refrain from smoking 24 h before study onset and refrain from alcohol intake throughout the study. Subjects with a history or presence of clinically important cardiac, renal, hepatic, endocrine (including diabetes mellitus), pulmonary, biliary, gastrointestinal, pancreatic, or neurological disorders and uncontrolled hypertension were excluded from the study. For each subject, the study was terminated after data collection on the assessment day. […] The IPs included Cymbopogon flexuosus (LG), water-soluble and water-insoluble extracts of Alpinia galanga (AG1 and AG2 respectively), and water-soluble and water-insoluble extracts of Glycyrrhiza glabra (GG1 and GG2 respectively). All interventions were administered to subjects in the form of identical capsules that had been packed in duly labeled HDPE bottles. […] The subjects were allowed to drink water as desired and allowed to relax in an isolated room at a comfortable temperature and were free to use a computer, listen to music, or read magazines during the clinic stay period. […] To ensure treatment compliance, product accountability was monitored by a clinical research coordinator on the following visit. […] Effects of IPs on different aspects of the attention network, such as alertness, orientation, and executive control, were also assessed by ANT. […]

healthy young volunteers [2] = assay: Attention network test (ANT 1.3.0), mental alertness, Example 2
From the text: The subjects were then screened. […] The subjects with body mass index (BMI) between 18.50 and 25.00 kg/m2 and a resting blood pressure≤140/90 mm Hg were considered eligible. To avoid subjects with psychotic disorders such as anxiety, depression, ADD or ADHD, subjects with Generalized Anxiety Disorder Screening (GAD-7) score≥7 & Patient Health Questionnaire-9 (PHQ-9) score≥14 were excluded from the study. Subjects with alertness score (Jin Fan's Attention Network Test, version 1.3.0) of 50±20 milliseconds at screening visit were considered eligible. Concomitant therapy was strictly prohibited in order to exclude any significant effect on the results. All the subjects were instructed thoroughly on the investigation procedures.
Subjects reported to the clinic during the morning hours and testing began at early time of day (8:00-9:00 a.m.) for each visit to avoid influence of daily challenges (related to mental and physical stress) on outcomes and the time of day was matched for all three visits to reduce variability in response due to diurnal pattern. […] Subjects were also instructed to obtain sufficient sleep during the night prior to testing which was confirmed using sleep diary. Upon arrival at clinic, subjects were asked to rest quietly for 15-20 minutes after which vital parameters were measured and a standardized meal of approximately 200 calories was provided to control variations from possible digestion confounds. Baseline data were collected 30 minutes post breakfast followed by administration of IP, wherein one dose of the product was administered to subject by trial coordinator at investigational site.
Post ingestion of IP, data were collected at 1, 3, and 5 hours. No other food or calorie-containing beverages were provided. Subjects were allowed to drink water as desired. Subjects were allowed to relax in an isolated room at a comfortable temperature and free to use the computer, listen to music or read magazines during the clinic stay period. To analyze the effect on IP on sleep architecture, a second dose was supplied in a labeled bottle to be taken before dinner in the night of the same day and subjects were asked to record all the details pertaining to sleep quality and duration in sleep diary. To ensure treatment compliance, product accountability was monitored by clinical research coordinator on the following visit.
The primary efficacy variable was mental alertness. Alertness is defined as achieving and maintaining a state of high sensitivity to incoming stimuli. The Attention network test (ANT) was implemented for this purpose as it provides a behavioral measure of the efficiency of the different components of attention networks separately within a single task. The downloaded JAVA version of ANT 1.3.0 (Fan et al., 2002, 2005) was used to conduct the trial. The subject was seated in a silent and secluded room. All external distractions were avoided and subjects were asked to give complete attention to the task at hand. Mental alertness in ANT was calculated in terms of difference score quantified in milliseconds and calculated by subtracting average double-cue RTs from the no-cue RTs. […]

healthy young volunteers [3] = assay: Psychomotor Vigilance Task (PVT), sustained attention, Example 2; settings: mean ± SD
From the text: Subjects were derived through multiple sources including a healthy volunteer's database and a consumer group's survey agency. The subjects were then screened. […] The subjects with body mass index (BMI) between 18.50 and 25.00 kg/m2 and a resting blood pressure≤140/90 mm Hg were considered eligible. To avoid subjects with psychotic disorders such as anxiety, depression, ADD or ADHD, subjects with Generalized Anxiety Disorder Screening (GAD-7) score≥7 & Patient Health Questionnaire-9 (PHQ-9) score≥14 were excluded from the study. […] Concomitant therapy was strictly prohibited in order to exclude any significant effect on the results. All the subjects were instructed thoroughly on the investigation procedures. Subjects were randomized and allocated to interventional products in each visit, divided in four treatment arms based on randomization chart [SPSS version 10.0, IBM] and similar trend was followed for subsequent visits. […] All these treatments were administered to subjects in the form of capsules which were identical in appearance and packed in duly labeled HDPE bottles. The blinding codes were secured at the site in tamper-evident sealed envelopes with no access to the investigators. Thus, the double blind nature of the data were ensured and strictly followed. […] Composition details of all these IPs are: Subjects reported to the clinic during the morning hours and testing began at early time of day (8:00-9:00 a.m.) for each visit to avoid influence of daily challenges (related to mental and physical stress) on outcomes and the time of day was matched for all three visits to reduce variability in response due to diurnal pattern. […] Subjects were also instructed to obtain sufficient sleep during the night prior to testing which was confirmed using sleep diary. Upon arrival at clinic, subjects were asked to rest quietly for 15-20 minutes after which vital parameters were measured and a standardized meal of approximately 200 calories was provided to control variations from possible digestion confounds. […] Post ingestion of IP, data were collected at 1, 3, and 5 hours. No other food or calorie-containing beverages were provided. Subjects were allowed to drink water as desired. Subjects were allowed to relax in an isolated room at a comfortable temperature and free to use the computer, listen to music or read magazines during the clinic stay period. […] To ensure treatment compliance, product accountability was monitored by clinical research coordinator on the following visit. […] The mean MRT was calculated in milliseconds, which is the time a subject took to press the response button as soon as each stimulus appeared. […]

SMILES: Cn1c(=O)c2c(ncn2C)n(C)c1=O [Caffeine, caffeine]
- alertness [1]: decrease in alertness compared to the placebo group
- ANT-Alertness (Mental Alertness) score (healthy young volunteers [2]; 1H: value at 1 hour, PP population, mean ± SD): 57.0 ± 18.1 ms
- increase in alertness score from baseline (healthy young volunteers [2]; at one hour): 8.97 ± 18.20 ms
- decrease in alertness score from baseline (healthy young volunteers [2]; at three hours): 1.23 ± 18.60 ms
- subjects that would exhibit higher alertness than the subjects in the placebo group (healthy young volunteers [2]; from Cohen's d): 47%
- effect size in alertness score, Cohen's d (healthy young volunteers [2]; in comparison with placebo): 0.08
- PVT-Mean Response Time (Sustained Attention) (healthy young volunteers [3]; 1H: value at 1 hour): 290.1 ± 51.6 ms
- PVT-Mean Response Time (Sustained Attention) (healthy young volunteers [3]; 3H: value at 3 hours): 287.6 ± 43.1 ms
- PVT-Mean Response Time (Sustained Attention) (healthy young volunteers [3]; 5H: value at 5 hours): 296.9 ± 51.5 ms
- PVT-Mean Response Time (Sustained Attention) (healthy young volunteers [3]; BL: baseline value): 310.4 ± 103.3 ms
